# Legend:
# [1] = Plasma α-tocopherol response to supplementation in healthy dogs (Example 10); format: in vivo
# Description: Vitamin E is the collective name for 8 naturally occurring molecules, 4 tocopherols and 4 tocotrienols. The biological activity of the various forms roughly correlates with their antioxidant activities with the order of relative peroxyl scavenging reactivities of α>β>γ>δ-tocopherol. […] The minimum requirement for vitamin E in adult dogs has been established as 2.5 IU α-tocopherol/400 kcal diet (Nutrient Requirements of Dogs (1985) National Research Council (U.S.) National Academy Press Washington D.C. ISBN:0-309-03496-5). Prepared petfoods typically contain up to 10 times this amount but across the normal ranges of vitamin E in petfoods, plasma concentrations tend to be constant. In a study to evaluate the impact of supplementary vitamin E on the plasma response, 6 adult dogs, maintained on a nutritionally complete (see diet reference section) canned dog food (vitamin E content 8.2 mg/400 kcal (8.21U/400 kcal), were offered a supplement equivalent to 100 IU vitamin E/day for 6 weeks. A control group of 6 dogs was maintained under the same conditions but received no dietary supplement. Plasma α-tocopherol was monitored during, and for 4 weeks following, the supplementation period.
# [2] = dog, in vivo
# [3] = system: rabies; format: in vivo; conditions: healthy adult cats; once daily oral supplement at Table 13 levels
# [4] = Plasma vitamin C in dogs after dietary vitamin C; format: in vivo
# Procedure: Samples are prepared under subdued lighting at all times.
# A preferred minimal dose of vitamin C to achieve an increase in plasma in cats is 20 mg/400 kcal. A preferred minimal dose of vitamin C tested to achieve an increase in plasma in dogs was 27 mg/400 kcal.
# [5] = in vivo
# [6] = cats; oral α-tocopherol acetate supplements
compound,measurement,setting,value
Cc1c(C)c2c(c(C)c1O)CC[C@@](C)(CCC[C@H](C)CCC[C@H](C)CCCC(C)C)O2 [α-tocopherol],Plasma α-tocopherol,"[1]; Test group (100 IU vitamin E/day for 6 weeks), Baseline",15.9
same,Plasma α-tocopherol,"[1]; Test group (100 IU vitamin E/day), Day 28",32.6
same,Plasma α-tocopherol,"[1]; Test group (100 IU vitamin E/day), Day 42",35.4
same,Plasma α-tocopherol,"[1]; Test group, Day 70 (day 28 post-supplementation)",28.2 ± 6.87
same,"individual plasma α-tocopherol levels, median",[2],21.1 mg/L
CC(C)=CCC/C(C)=C/C=C/C(C)=C/C=C/C(C)=C/C=C/C=C(C)/C=C/C=C(C)/C=C/C=C(\C)CCC=C(C)C [lycopene],anti-rabies antibody response to vaccination versus unsupplemented controls,[3],particularly marked
"NCCS(=O)(=O)O [taurine, aminoethylsulfonic acid]",anti-rabies antibody response to vaccination versus unsupplemented controls,[3],greater
"O=C1O[C@H]([C@@H](O)CO)C(O)=C1O [Vitamin C, L-ascorbic acid]",minimal dose of vitamin C tested to achieve an increase in plasma,[4],27 mg/400 kcal
same,anti-rabies antibody response to vaccination versus unsupplemented controls,[3],greater
same,plasma vitamin C levels versus baseline within 7 days,[5],significantly increased
"CC(=O)Oc1c(C)c(C)c2c(c1C)CCC(C)(CCC[C@H](C)CCC[C@H](C)CCCC(C)C)O2 (stereo partly drawn) [Vitamin E, alpha-tocopherol acetate]",anti-rabies antibody response to vaccination versus unsupplemented controls,[3],greater
same,plasma vitamin E levels following oral supplementation,[6],significantly increased
CC1=C(/C=C/C(C)=C/C=C/C(C)=C/C=C/C=C(C)/C=C/C=C(C)/C=C/C2=C(C)CCCC2(C)C)C(C)(C)CCC1 [beta-carotene],anti-rabies antibody response to vaccination versus unsupplemented controls,[3],greater
